Data published in ChEMBL document CHEMBL4219159, “A genetically selected cyclic peptide inhibitor of BCL6 homodimerization” (Bioorg Med Chem, 2018).
The source made the active and inactive calls. The calls are words filed in the database; no cut-off is given here. Where a SMILES comes first, the peptide text is derived from it.

Key:
[1] = biological target: T1, B-cell lymphoma 6 protein (Homo sapiens, UniProt P41182); experiment: Binding affinity to recombinant N-terminal GST-tagged/RED-NHS labelled wild-type BCL6 BTB domain (5 to 129 residues) (unknown origin) expressed in Escherichia coli Rosetta BL21 (DE3) at 1 mM incubated for 30 mins under dark condition in by single-point microscale thermophoresis method
[2] = test system: B-cell lymphoma 6 protein (Homo sapiens), P41182 [C8Q,C67R,C84N]; experiment: Binding affinity to recombinant RED-NHS labelled BCL6 BTB domain (unknown origin) C8Q/C67R/C84N triple mutant expressed in Escherichia coli Rosetta BL21 (DE3) assessed as decrease in SMRT2 peptide binding incubated for 30 mins under dark condition by microscale thermophoresis method relative to control
[3] = test system: B-cell lymphoma 6 protein (Homo sapiens), P41182 [C8Q,C67R,C84N]; experiment: Inhibition of recombinant BCL6 C8Q/C67R/C84N triple mutant BTB domain dimerization (unknown origin) expressed in Escherichia coli Rosetta BL21 (DE3) at 500 uM by size exclusion chromatographic method
[4] = test system: B-cell lymphoma 6 protein (Homo sapiens), P41182 [C8Q,C67R,C84N]; experiment: Stabilization of recombinant BCL6 BTB domain (unknown origin) C8Q/C67R/C84N triple mutant expressed in Escherichia coli Rosetta BL21 (DE3) assessed as change in melting temperature measured every 30 secs by SYPRO orange dye based thermal shift assay
[5] = test system: B-cell lymphoma 6 protein (Homo sapiens), P41182 [C8Q,C67R,C84N]; experiment: Binding affinity to recombinant RED-NHS labelled BCL6 BTB domain (unknown origin) C8Q/C67R/C84N triple mutant expressed in Escherichia coli Rosetta BL21 (DE3) incubated for 30 mins under dark condition in presence of DTT by microscale thermophoresis method
[6] = biological target: B-cell lymphoma 6 protein (Homo sapiens, UniProt P41182, C67R/C84N/C8Q); experiment: Binding affinity to recombinant RED-NHS labelled BCL6 BTB domain (unknown origin) C8Q/C67R/C84N triple mutant expressed in Escherichia coli Rosetta BL21 (DE3) incubated for 30 mins under dark condition by microscale thermophoresis method; conditions: read-out: Kd(app)
[7] = biological target: T1, B-cell lymphoma 6 protein; experiment: Stabilization of recombinant N-terminal GST-tagged wild-type BCL6 BTB domain (5 to 129 residues) (unknown origin) expressed in Escherichia coli Rosetta BL21 (DE3) assessed as change in melting temperature measured every 30 secs by SYPRO orange dye based thermal shift assay
[8] = biological target: T1, B-cell lymphoma 6 protein; experiment: Binding affinity to recombinant N-terminal GST-tagged/RED-NHS labelled wild-type BCL6 BTB domain (5 to 129 residues) (unknown origin) expressed in Escherichia coli Rosetta BL21 (DE3) incubated for 30 mins under dark condition by microscale thermophoresis method; conditions: read-out: Kd(app)
[9] = biological target: T1, B-cell lymphoma 6 protein; experiment: Binding affinity to recombinant N-terminal GST-tagged/RED-NHS labelled wild-type BCL6 BTB domain (5 to 129 residues) (unknown origin) expressed in Escherichia coli Rosetta BL21 (DE3) incubated for 30 mins under dark condition in presence of DTT by microscale thermophoresis method

SMILES: CC[C@@H](C)[C@@H]1NC(=O)[C@H](CS)NC(=O)[C@H](C(C)C)NC(=O)[C@H](CS)NC(=O)[C@H](C)NC(=O)[C@H](Cc2ccc(O)cc2)NC1=O
- Activity [1]: inactive

SMILES: CC[C@@H](C)[C@@H]1NC(=O)[C@H](CS)NC(=O)[C@H](C(C)C)NC(=O)[C@H](C)NC(=O)[C@H](Cc2ccc(O)cc2)NC(=O)[C@H](Cc2ccc(O)cc2)NC1=O
- Activity [1]: inactive

SMILES: CC(C)[C@@H]1NC(=O)[C@H](CS)NC(=O)[C@H](Cc2ccc(O)cc2)NC(=O)[C@H](Cc2ccc(O)cc2)NC(=O)[C@H](C)NC(=O)[C@H](CS)NC1=O (cyclo(AYYCVC))
- Activity [1]: Active

SMILES: CC[C@@H](C)[C@@H]1NC(=O)[C@H](CS)NC(=O)[C@H](C(C)C)NC(=O)[C@H](CS)NC(=O)[C@H](Cc2ccc(O)cc2)NC(=O)[C@H](C)NC1=O
- Activity [1]: Active

SMILES: CC[C@@H](C)[C@@H]1NC(=O)[C@H](C)NC(=O)[C@H](C(C)C)NC(=O)[C@H](CS)NC(=O)[C@H](Cc2ccc(O)cc2)NC(=O)[C@H](Cc2ccc(O)cc2)NC1=O
- Activity [1]: inactive

SMILES: CC[C@@H](C)[C@@H]1NC(=O)[C@H](CS)NC(=O)[C@H](C(C)C)NC(=O)[C@H](CS)NC(=O)[C@H](Cc2ccc(O)cc2)NC(=O)[C@H](Cc2ccc(O)cc2)NC1=O
- Activity [1]: Active
- fold change (FC) [2]: 3
- inhibition [3]: Active
- Activity [4]: Dose-dependent effect
- Activity [5]: inactive
- Kd [6]: 50 µM
- Activity [7]: Dose-dependent effect
- Kd [8]: 142 µM
- Activity [9]: inactive

SMILES: CC[C@@H](C)[C@@H]1NC(=O)[C@H](CS)NC(=O)[C@H](C)NC(=O)[C@H](CS)NC(=O)[C@H](Cc2ccc(O)cc2)NC(=O)[C@H](Cc2ccc(O)cc2)NC1=O
- Activity [1]: Active
